Numbered stars: 1 amine (or outer) side, 2 acyl side, 3 side chain; on linkers, the order of the positions; unused ones are H or OH. Bridge positions count the residues as written; N and C are the ends. Square brackets hold non-standard residues; d marks the D form. Peptide text beside a SMILES is read from it. * marks the point of attachment. C20 diacid = O=C(O)CCCCCCCCCCCCCCCCCCC(=O)*; γGlu = O=C(O)[C@H](CCC(=O)[*:2])N[*:1]; Hyp = O=C(O)[C@@H]1C[C@@H](O)CN1
System: not listed separately
Test: Physical stability of peptide analogues (Thioflavin T fibrillation)
Assay type: physicochemical
Details: maximum ThT signal normalized between hAMY maximum and buffer background; 40° C., shaking, four days; pH 7 per table title
Protocol: General Protocols for Determination of Physical Stability of Peptide Analogues
Peptides were dissolved in buffers (50 mM sodium acetate at pH 4 or 50 mM sodium phosphate at pH 7) and incubated for one hour. The samples were then divided into two replicates of 80 μl in a black 384 well plate (μ-clear, Greiner Bio-One) and mixed with Thioflavin T (ThT) to a final concentration of 4 μM. The plate was sealed and placed in a plate reader (CLARIOstar, BMG) where the temperature was set at 40° C. during the course of the experiment. The samples were further stressed by shaking the plate at 700 rpm (linear) for five minutes before every measurement. The fluorescence was measured every 10 min for four days by exciting the ThT at 450 nm and measuring the emission at 480 nm. For each peptide, the ThT signal over time was smoothened using Local Polynomial Regression fitting (LOESS) as implemented in the statistical programming environment R. For the smoothened data, the maximum ThT signal was normalized in percent between the maximum ThT signal for hAMY and the buffer background.

Question: For CC[C@H](C)[C@H](NC(=O)[C@H](CCC(N)=O)NC(=O)[C@H](Cc1c[nH]cn1)NC(=O)[C@H](C)NC(=O)[C@H](CC(C)C)NC(=O)[C@H](CCCNC(=N)N)NC(=O)[C@H](CCC(N)=O)NC(=O)[C@@H](NC(=O)[C@@H](NC(=O)[C@@H]1CSSC[C@H](NC(=O)CN)C(=O)N[C@@H](CCCNC(=N)N)C(=O)N[C@@H]([C@@H](C)O)C(=O)NCC(=O)N[C@@H]([C@@H](C)O)C(=O)N1)[C@@H](C)O)C(C)C)C(=O)N[C@@H](Cc1ccc(O)cc1)C(=O)N[C@@H](CCC(N)=O)C(=O)N[C@@H](Cc1ccccc1)C(=O)N[C@H](C(=O)N[C@@H](CC(=O)O)C(=O)N[C@@H](CCCCN)C(=O)N[C@@H](CC(=O)O)C(=O)N[C@@H](CCCCN)C(=O)N[C@@H](CC(=O)O)C(=O)N[C@@H](CC(N)=O)C(=O)N[C@H](C(=O)N[C@@H](C)C(=O)N1CCC[C@H]1C(=O)N[C@@H](CCCNC(=N)N)C(=O)N[C@H](C(=O)N[C@@H](CC(N)=O)C(=O)N[C@H](C(=O)N[C@@H](CO)C(=O)N1CCC[C@H]1C(=O)N[C@@H](CCC(N)=O)C(=O)NCC(=O)N[C@@H](Cc1ccc(O)cc1)C(N)=O)[C@@H](C)CC)[C@@H](C)O)C(C)C)[C@@H](C)O [compound 199] (H-GCRTGTCTVQRLAHQIYQFTDKDKDNVAPRTNISPQGY-NH2; disulfide 2-7; N-terminus assumed), which “Max ThT signal (%)” value is on record?
Answer: The value was 8.900%.

Target: T1, hAMY3 receptor (Homo sapiens, UniProt O60896+P30988)
T1 sequence (P30988 25-474): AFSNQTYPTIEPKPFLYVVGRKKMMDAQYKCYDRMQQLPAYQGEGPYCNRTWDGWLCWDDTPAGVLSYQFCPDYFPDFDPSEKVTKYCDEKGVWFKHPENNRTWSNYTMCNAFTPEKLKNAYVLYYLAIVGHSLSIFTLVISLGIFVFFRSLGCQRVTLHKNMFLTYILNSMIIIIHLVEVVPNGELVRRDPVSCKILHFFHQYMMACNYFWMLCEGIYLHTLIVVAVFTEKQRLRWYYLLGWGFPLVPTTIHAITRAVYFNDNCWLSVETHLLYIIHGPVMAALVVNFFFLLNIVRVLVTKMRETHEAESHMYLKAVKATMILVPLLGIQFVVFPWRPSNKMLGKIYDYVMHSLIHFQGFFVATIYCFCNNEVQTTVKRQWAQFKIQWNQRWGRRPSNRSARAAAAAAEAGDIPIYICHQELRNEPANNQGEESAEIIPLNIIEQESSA
T1 sequence (O60896 24-148 partner): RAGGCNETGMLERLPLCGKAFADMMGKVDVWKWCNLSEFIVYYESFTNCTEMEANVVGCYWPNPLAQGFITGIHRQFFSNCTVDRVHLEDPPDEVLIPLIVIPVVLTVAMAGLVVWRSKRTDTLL
Test: cAMP assay for in vitro receptor activation, hAMY3-R
Assay type: cell-based
Details: cAMP assay, hAMY3 receptor; read-out: hAMY3R EC50
Outline: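 Accumulated cAMP was detected by time-resolved FRET one hour after reagent addition. Beforehand, hAMY3-R-overexpressing monoclonal cells (2000/well, DPBS, 0.05% casein, 0.5 mM IBMX) received graded doses of compound for 30 min at room temperature; human amylin served as positive control.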

Question: Which EC50 does the source give for CC[C@H](C)[C@H](NC(=O)[C@H](CCCCN)NC(=O)[C@H](CO)NC(=O)[C@H](CCCNC(=N)N)NC(=O)[C@@H]1CCCN1C(=O)[C@H](C)NC(=O)[C@@H](NC(=O)[C@H](CC(N)=O)NC(=O)[C@H](CC(=O)O)NC(=O)[C@H](CCCCN)NC(=O)[C@H](CC(=O)O)NC(=O)[C@H](CCCCN)NC(=O)[C@H](CC(=O)O)NC(=O)[C@@H](NC(=O)[C@H](Cc1ccccc1)NC(=O)[C@H](CCC(N)=O)NC(=O)[C@@H](NC(=O)[C@H](CC(C)C)NC(=O)[C@H](Cc1ccccc1)NC(=O)[C@H](CC(N)=O)NC(=O)[C@H](C)NC(=O)[C@H](CC(C)C)NC(=O)[C@H](CCCNC(=N)N)NC(=O)[C@H](CCC(N)=O)NC(=O)[C@@H](NC(=O)[C@H](C)NC(=O)[C@@H]1CSSC[C@H](NC(=O)[C@H](CCCCN)NC(=O)CC[C@H](NC(=O)CCCCCCCCCCCCCCCCCCC(=O)O)C(=O)O)C(=O)N[C@@H](CC(N)=O)C(=O)N[C@@H](Cc2ccccc2)C(=O)N[C@@H](C)C(=O)N[C@@H]([C@@H](C)O)C(=O)N1)[C@@H](C)O)C(C)C)[C@@H](C)O)C(C)C)C(=O)NCC(=O)N1CCC[C@H]1C(=O)N[C@@H](CCC(N)=O)C(=O)NCC(=O)N[C@@H](Cc1ccc(O)cc1)C(N)=O [compound 389] ({C20 diacid-γGlu}-KCNFATCATQRLANFLVQFTDKDKDNVAPRSKIGPQGY-NH2; disulfide 2-7) here?
Answer: Its EC50 is 0.045 nM.

Question: For CC[C@H](C)[C@H](NC(=O)[C@H](CC(N)=O)NC(=O)[C@@H](NC(=O)[C@H](CCCNC(=N)N)NC(=O)[C@@H]1CCCN1C(=O)[C@H](C)NC(=O)[C@@H](NC(=O)[C@H](CC(N)=O)NC(=O)[C@H](CC(=O)O)NC(=O)[C@H](CCCCN)NC(=O)[C@H](CC(=O)O)NC(=O)[C@H](CCCCN)NC(=O)[C@H](CC(=O)O)NC(=O)[C@@H](NC(=O)[C@H](Cc1ccccc1)NC(=O)[C@H](CCC(N)=O)NC(=O)[C@H](Cc1ccc(O)cc1)NC(=O)[C@@H](NC(=O)[C@H](CCC(N)=O)NC(=O)[C@H](Cc1c[nH]cn1)NC(=O)[C@H](C)NC(=O)[C@H](CC(C)C)NC(=O)[C@H](CCCNC(=N)N)NC(=O)[C@H](CCC(N)=O)NC(=O)[C@@H](NC(=O)[C@@H](NC(=O)[C@@H]1CSSC[C@H](NC(=O)CN)C(=O)N[C@@H](CCCNC(=N)N)C(=O)N[C@@H](Cc2ccccc2)C(=O)NCC(=O)N[C@@H]([C@@H](C)O)C(=O)N1)[C@@H](C)O)C(C)C)[C@@H](C)CC)[C@@H](C)O)C(C)C)[C@@H](C)O)C(=O)NCC(=O)N1CCC[C@H]1C(=O)N[C@@H](CCC(N)=O)C(=O)NCC(=O)N[C@@H](Cc1ccc(O)cc1)C(N)=O [compound 379] (H-GCRFGTCTVQRLAHQIYQFTDKDKDNVAPRTNIGPQGY-NH2; disulfide 2-7), which EC50 is on record?
Answer: Its EC50 is 0.029 nM.

Question: Which EC50 does the source give for CC[C@H](C)[C@H](NC(=O)[C@H](CCCCN)NC(=O)[C@@H](NC(=O)[C@H](CCCNC(=N)N)NC(=O)[C@@H]1CCCN1C(=O)[C@H](C)NC(=O)[C@@H](NC(=O)[C@H](CC(N)=O)NC(=O)[C@H](CC(=O)O)NC(=O)[C@H](CCCCN)NC(=O)[C@H](CC(=O)O)NC(=O)[C@H](CCCCN)NC(=O)[C@H](CC(=O)O)NC(=O)[C@@H](NC(=O)[C@H](Cc1ccccc1)NC(=O)[C@H](CCC(N)=O)NC(=O)[C@H](Cc1ccc(O)cc1)NC(=O)[C@@H](NC(=O)[C@H](CCC(N)=O)NC(=O)[C@H](Cc1c[nH]cn1)NC(=O)[C@H](C)NC(=O)[C@H](CC(C)C)NC(=O)[C@H](CCCNC(=N)N)NC(=O)[C@H](CCC(N)=O)NC(=O)[C@@H](NC(=O)[C@@H](NC(=O)[C@@H]1CSSC[C@H](NC(=O)CN)C(=O)N[C@@H](CCCNC(=N)N)C(=O)N[C@@H](Cc2ccccc2)C(=O)NCC(=O)N[C@@H]([C@@H](C)O)C(=O)N1)[C@@H](C)O)C(C)C)[C@@H](C)CC)[C@@H](C)O)C(C)C)[C@@H](C)O)C(=O)NCC(=O)N1CCC[C@H]1C(=O)N[C@@H](CCC(N)=O)C(=O)NCC(=O)N1C[C@H](O)C[C@H]1C(N)=O [compound 111] (H-GCRFGTCTVQRLAHQIYQFTDKDKDNVAPRTKIGPQG[Hyp]-NH2; disulfide 2-7; N-terminus assumed) here?
Answer: Its EC50 is 0.021 nM.

Question: With CC[C@H](C)[C@H](NC(=O)[C@H](CC(N)=O)NC(=O)[C@@H](NC(=O)[C@H](CCCNC(=N)N)NC(=O)[C@@H]1CCCN1C(=O)[C@H](C)NC(=O)[C@@H](NC(=O)[C@H](CC(N)=O)NC(=O)[C@H](CC(=O)O)NC(=O)[C@H](CCCCN)NC(=O)[C@H](CC(=O)O)NC(=O)[C@H](CCCCN)NC(=O)[C@H](CC(=O)O)NC(=O)[C@@H](NC(=O)[C@H](Cc1ccccc1)NC(=O)[C@H](CCC(N)=O)NC(=O)[C@H](Cc1ccc(O)cc1)NC(=O)[C@@H](NC(=O)[C@H](CCC(N)=O)NC(=O)[C@H](Cc1c[nH]cn1)NC(=O)[C@H](C)NC(=O)[C@H](CC(C)C)NC(=O)[C@H](CCCNC(=N)N)NC(=O)[C@H](CCC(N)=O)NC(=O)[C@@H](NC(=O)[C@@H](NC(=O)[C@@H]1CSSC[C@H](NC(=O)CN)C(=O)N[C@@H](CCCNC(=N)N)C(=O)N[C@@H](Cc2ccccc2)C(=O)NCC(=O)N[C@@H]([C@@H](C)O)C(=O)N1)[C@@H](C)O)C(C)C)[C@@H](C)CC)[C@@H](C)O)C(C)C)[C@@H](C)O)C(=O)NCC(=O)N1CCC[C@H]1C(=O)N[C@@H](CC(N)=O)C(=O)NCC(=O)N[C@@H](Cc1ccc(O)cc1)C(N)=O [compound 381] (H-GCRFGTCTVQRLAHQIYQFTDKDKDNVAPRTNIGPNGY-NH2; disulfide 2-7; N-terminus assumed) as the compound, how does the EC50 read?
Answer: The EC50 was 0.032 nM.

Question: With CC[C@H](C)[C@H](NC(=O)[C@H](CCC(N)=O)NC(=O)[C@H](Cc1c[nH]cn1)NC(=O)[C@H](C)NC(=O)[C@H](CC(C)C)NC(=O)[C@H](CCCNC(=N)N)NC(=O)[C@H](CCC(N)=O)NC(=O)[C@@H](NC(=O)[C@@H](NC(=O)[C@@H]1CSSC[C@H](NC(=O)[C@H](CCCCN)NC(=O)CC[C@H](NC(=O)CCCCCCCCCCCCCCCCCCC(=O)O)C(=O)O)C(=O)N[C@@H](CC(N)=O)C(=O)N[C@@H]([C@@H](C)O)C(=O)N[C@@H](C)C(=O)N[C@@H]([C@@H](C)O)C(=O)N1)[C@@H](C)O)C(C)C)C(=O)N[C@@H](Cc1ccc(O)cc1)C(=O)N[C@@H](CCC(N)=O)C(=O)N[C@@H](Cc1ccccc1)C(=O)N[C@H](C(=O)N[C@@H](CC(=O)O)C(=O)N[C@@H](CCCCN)C(=O)N[C@@H](CC(=O)O)C(=O)N[C@@H](CCCCN)C(=O)N[C@@H](CC(=O)O)C(=O)N[C@@H](CC(N)=O)C(=O)N[C@H](C(=O)N[C@@H](C)C(=O)N1CCC[C@H]1C(=O)N[C@@H](CCCNC(=N)N)C(=O)N[C@H](C(=O)N[C@@H](CCCCN)C(=O)N[C@H](C(=O)NCC(=O)N[C@@H](CO)C(=O)N[C@@H](CC(N)=O)C(=O)NCC(=O)N1C[C@H](O)C[C@H]1C(N)=O)C(C)C)[C@@H](C)O)C(C)C)[C@@H](C)O [compound 99] ({C20 diacid-γGlu}-KCNTATCTVQRLAHQIYQFTDKDKDNVAPRTKVGSNG[Hyp]-NH2; disulfide 2-7) as the compound, how does the EC50 read?
Answer: Its EC50 is 0.017 nM.
